From the NIST ThermoML archive (doi:10.1021/acs.jced.7b00999) come the findings set out here.

Molecules are shown by their SMILES. Numbers after ± are expanded uncertainties.

The conditions of this data set: Liquid, Ebulliometric method (Recirculating still).

For the compound `CCCCCCC` [heptane], the “vapor or sublimation pressure” value (371.58 K) is on record as 100 ± 1 kPa.

Regarding `CC1CCCCC1` [methylcyclohexane], for the setting “374.08 K”, the “vapor or sublimation pressure” value amounted to 101.3 ± 1 kPa.

For `CCC(C)OC(C)=O` (stereo not drawn) [1-methylpropyl ethanoate], the “vapor or sublimation pressure” value (385.15 K) turned out to be 101.3 ± 1 kPa.
